Measured values: patent publication US12329739B2, “Isoflavonoid compounds and methods for the treatment of cancer” (Aardvark Therapeutics, Inc., priority 2010, dated 2025)
Values after ≈ are worked out from the molar mass of the structure shown.

What was measured:
HepG2 = assay: MTT proliferation assay, HepG2; type: cell-based, human; details: Homo sapiens; Liver, HepG2, 120 h of exposure
Description: The human hepatocellular carcinoma lines HepG2 (HB-8065), SK-HEP-1 (HTB-52) and the normal human lung fibroblast line IMR-90 (CCL-186) were cultured in Minimum Essential Eagles Medium containing 2 mM L-glutamine, 2.2 g/L sodium bicarbonate, supplemented with 1 mM sodium pyruvate and 0.1 mM non-essential amino acids. The human hepatocellular carcinoma line JHH-1 (JCRB1062) was cultured in Williams E Medium (Invitrogen) containing 2.2 g/L sodium bicarbonate, supplemented with 2 mM L-glutamine. The hepatocellular carcinoma line HuH-7 (JCRB0403) was cultured in DMEM, supplemented with 2 mM L-glutamine.
(§1) Proliferation Assays. IC50 values were determined for each cell line. Cells were seeded in 96-well plates at an appropriate cell density as determined from growth kinetics analysis and cultured for 5 days in the absence and presence of the test compounds. Cell proliferation was assessed after the addition of 20 μl of 3-4,5 dimethylthiazol-2,5-diphenyl tetrazolium bromide (MTT, 5 mg/ml in PBS, Sigma) for 5 hrs at 37° C. according to manufacturer's instructions. IC50 values were calculated from semi-log plots of % of control proliferation on the y-axis against log dose on the x-axis.
(§2) Anti-proliferative Activity of Isoflavonoid Derivatives. IC50 values were determined for each cell line after 120 h of exposure.

[1] = Solubility in Captisol solution; type: physicochemical; details: 20% Captisol solution, aqueous with cosolvent or surfactant or cyclodextrin, 25° C., read-out: solubility limit
Description: (20% Captisol®). Formulation is carried out under aseptic conditions. Sterility is achieved by terminal filtration through a 0.22 micron filter.

A549 = assay: MTT proliferation assay, A549; type: cell-based; details: Homo sapiens; NSCLC, A549, 120 h of exposure
Description: as §1, §2

CALU3 = assay: MTT proliferation assay, CALU3; type: cell-based; details: Homo sapiens, Calu-3; NSCLC, CALU3, 120 h of exposure
Description: as §1, §2

IC50 (HepG2): 150 to 500 nM
solubility [1]: 27.9 mg/mL (≈ 83.4 mM)
IC50 (A549): 510 to 1500 nM
IC50 (CALU3): 150 to 500 nM
SMILES: Oc1ccc([C@H]2c3ccc(O)cc3OC[C@H]2c2ccc(O)cc2)cc1 [Compound 31, d-cis-3-(4-hydroxyphenyl)-4-(4-hydroxyphenyl)chroman-7-ol]
